Experimental findings from a melting point compilation (Tetko et al.; mined from patent text by program, amines drawn as free bases though some values may be those of a salt) are described below.

The structures appear in SMILES notation. Some results are limits rather than exact numbers.

As a reminder, the melting point is the temperature, or range, at which the solid turns liquid. The compound `CCN(CC)S(=O)(=O)c1nc2ccc([N+](=O)[O-])cc2n1CC` showed a melting point of 90 to 91 °C.
For `O=C(COc1cc(Cl)c(Cl)cc1Cl)OCNC(=O)Oc1ccccc1Cl`, the melting point amounted to 119 °C.
For `CCCCNC(=O)NS(=O)(=O)c1ccccc1-c1ccc(C(=O)OC)o1`, the melting point fell in the range of 145 to 148 °C.
`CC(C)NCC(=O)Nc1ccc2c(c1)C(=O)c1cc(NC(=O)CNC(C)C)ccc1C2=O`: the melting point amounted to 158 °C.
`COc1ccc(-n2c(=O)n(OCc3ccccc3)c(=O)c3cc(F)c(N4CCCC4)nc32)cc1`: the melting point was in the range of 186 to 188 °C.
Consider `CC(C)(C=O)NC(=O)OC(C)(C)C`, for which the melting point was 84 to 85 °C.
Then `CC(C)(C)c1cc(I)c(O)c(C=NO)c1`, with 154 to 156 °C; and `CC(C)c1nc2c(c3c1[nH]c1ccccc13)C(=O)CC(C)(C)C2`, with 176 to 178 °C.
Compound `Cc1ccc(-c2nc3c(N[C@H]4[C@@H](C(N)=O)[C@@H]5C=C[C@H]4C5)c(Br)cnc3[nH]2)o1` gave a melting point of 200 to 201 °C.
Consider `CCCc1c(C(=O)OCC)sc2[nH]c(=O)c(=O)[nH]c12`, for which the melting point was in the range of 305 to 307 °C.
The compound `Cc1c2c(c(C)c3c1NC(C)(C)C3)OC(C)(CI)C2` (centres undefined) gave a melting point of 100 to 104 °C.
Then `CCc1cc(NCc2nc3ccccc3s2)c(=O)[nH]c1C`, with 209 to 210 °C.
For `C#CCN1CCCNC1=C[N+](=O)[O-]`, the melting point was in the range of 157 to 158 °C.
Next, `CC(C)Oc1c(C(=O)O)sc2c1CSCC2`: 148 to 149 °C; `CC(C)(C)OC(=O)c1nc(-c2ccccc2)[nH]c1C1CCCCC1`: 222 to 223 °C; `COc1ccc(S(=O)(=O)N(CC(N)=O)c2ccc(Cl)cc2Cc2ccccc2C(F)(F)F)cc1OC`: 133 °C.
With `COc1ccc2nc3c(C(=O)O)cccn3c(=O)c2c1`, the melting point was 272 to 274 °C.
Next, `COc1ccc(C=O)cc1OCc1ccc2ccccc2c1`: 80 °C; `Cc1nc(-c2ccc(Cl)cc2)oc1CO`: 135 °C.
Then `C=C1CCC2C3CCC4CC(O)C(OC)CC4(C)C3CCC12C` (centres undefined), with 131 to 133 °C; and `Cc1nc(-c2ccc(OCC(C)C)c(C=O)c2)sc1C(=O)O`, with 213 to 217 °C.
`CCN1C(=O)Cc2ccc(C(O)CCl)c(O)c21` (centres undefined) had a melting point of 141 to 147 °C.
Then `CCOC(=O)/C=C/c1cnc2c(c1)C(=O)N(C)c1ccc(Cl)nc1N2CC`, with 192 to 193 °C; and `O=C(Nc1ccc(F)c(NC(=S)Nc2cccc(C(F)(F)F)c2)c1)c1ccc(Cl)c(Cl)c1`, with 172 to 174 °C; and `N#Cc1ccc(OCc2ccc(CCc3ccncc3)cc2)cc1`, with 139 to 140 °C.
The compound `COc1cc(C2Oc3cc(C4Oc5cc(O)cc(O)c5C(=O)C4O)ccc3OC2CO)ccc1O` (centres undefined) registered a melting point of 167 to 180 °C.
Next, `CC1CC(=O)Nc2nc(OCCCCN3CCN(c4cccc(Cl)c4Cl)CC3)ccc21` (centres undefined): 53 to 54 °C; `COc1cc2c(cc1OC)N(C(=O)C=Cc1ccccc1)CC(N(C)C)C2` (centres undefined): 97 to 98 °C; `O=C1NC(=O)C(c2c3n(c4ccccc24)CCC(CO)C3)=C1c1cccc(C(F)(F)F)c1` (centres undefined): 77 to 79 °C.
In turn, `CN1CCC(Cc2ccccc2)(Oc2ccc([N+](=O)[O-])cc2)CC1` gave a melting point of 116 to 117 °C.
In the case of `CCC(=O)c1cc2ccccc2cc1C(=O)O`, the melting point was 147 °C.
In the case of `Cc1ccc2c(c1)C(C(=O)Nc1c(C)cccc1C)c1ccccc1CO2` (centres undefined), the melting point fell in the range of 162 to 163 °C.
`CN(C)C=Nc1cccc2nc(N3CCN(C)CC3)c(N3CCN(C)CC3)nc12` came in with a melting point of 183 to 186 °C.
For `CC(C)[C@@H](CNC(=O)/C=C/c1ccccc1)NC(=O)OC(C)(C)C`, the melting point is 149 to 151 °C.
`CCOC(=O)c1ncn(-c2nn(C)cc2Cl)c1S(N)(=O)=O` registered a melting point of 167 to 168 °C.
Compound `CC1(C)Cc2c(c(N3CCOCC3)nc3sc4c(N(CCO)CCN5CCOCC5)ncnc4c23)CO1` had a melting point of 112 to 113 °C.
Consider `COc1cc2c(Oc3ccc4[nH]cc(C)c4c3)ncnc2cc1OCCCN1CCCC1`, for which the melting point was in the range of 75 to 77 °C.
Next, `CCOC(OCC)C(N)c1nnnn1C` (centres undefined): 99 to 101 °C; `O=C(Nc1ccc(C(=O)N2CCCCc3ccccc32)c(Cl)c1)OCCOc1ccccc1`: 144 to 146 °C.
`C(=C1CSCC2=C1N=C1SCCN1C2c1ccccc1)c1ccccc1` (centres undefined) returned a melting point of 195 to 196 °C.
`COC=C(C(=O)OC)c1ccccc1CBr` yielded a melting point of 88 to 90 °C.
Compound `Cc1cc(-n2ccc(=O)[nH]c2=O)cc(Cl)c1Sc1ccc(Cl)cc1` registered a melting point of 150 to 160 °C.
The compound `COc1ccc(OCc2nc3nccnc3c(=O)[nH]2)cc1` had a melting point of 233 to 234 °C.
The compound `O=C(NCCCSc1ccncc1)c1cc(Br)c(Br)s1` had a melting point of 129 to 130 °C.
Turning to `Brc1cn2c(Br)cnc2c(NCc2ccco2)n1`, the melting point amounted to 143 °C.
In the case of `CC1=NCN2C1=Cc1cncnc1-c1cccc(C(=O)O)c12`, the melting point fell in the range of 285 to 287 °C.
`CC(=O)OC(c1ccc(Cl)c(Cl)c1)C(Cl)(Cl)Cl` (centres undefined) registered a melting point of 85 to 86 °C.
`CCn1nc(OCCCc2ccc(OC(C)C)cc2Oc2ncc(C(F)(F)F)cc2Cl)cc1CCC(=O)O` returned a melting point of 73 to 74 °C.
`CC(=O)Oc1cc2nc(-c3ccccc3)nn2c2ccccc12` displayed a melting point of 200 to 202 °C.
The compound `NS(=O)(=O)c1ccc(-c2noc(-c3cnn4c(C(F)(F)F)cc(-c5ccc(C(F)(F)F)cc5)nc34)n2)cc1` had a melting point of 275 °C.
For `COc1cc2cc(COCC(=O)N3CCN(C)CC3)c(CO)c(-c3ccnc(-n4c(=O)ccc5ccccc54)c3)c2cc1OC`, the melting point lay within 100 to 102 °C.
Compound `Cc1cc2nc(C)c(=O)n(C)c2cc1C` had a melting point of 164 to 166 °C.
`O=C(O)C(=O)c1ccc(OCC(=O)c2ccc3ccccc3c2)cc1` returned a melting point of 167 to 170 °C.
With `Cn1cncc1C(N)(c1ccoc1)c1ccc2c(c1)c(-c1cccc(Cl)c1)cc(=O)n2C` (centres undefined), the melting point turned out to be 197 °C.
Turning to `CCCn1nc(C(C)C)c(C(=O)O)c1Cc1ccc(-c2ccccc2C(=O)O)cc1`, the melting point was 226 to 230 °C.
`CC(c1ccc(-c2ccccc2)c(F)c1)c1nc(CCCl)no1` (centres undefined) had a melting point of 72 to 72.5 °C.
In turn, `O=C(c1cccs1)C(Br)c1ccc(F)cc1` (centres undefined) showed a melting point of 182 to 189 °C.
In the case of `NC(CO)C(c1ccccc1)c1ccccc1` (centres undefined), the melting point was in the range of 107 to 108 °C.
With `O=C(NCCCN1CCOCC1)c1ccccc1C(c1ccc(O)cc1)c1ccc(O)cc1`, the melting point was in the range of 120 to 122 °C.
For the compound `CN1CCN(c2cc(-c3cnc4c(c3)N(C(=O)Cc3cc(F)ccc3F)CCN4)ccn2)CC1`, the melting point is greater than 300 °C.
`O=C(c1ccccc1)c1ncc(=O)n(CC(F)(F)F)n1` yielded a melting point of 174 to 175 °C.
In turn, `Cc1oc(-c2cccc(CCc3ccccc3)c2)nc1CCOc1ccc(OC(C)(C)C(=O)O)cc1` registered a melting point of 124 to 125 °C.
In the case of `O=S(=O)(CC(O)(CCl)c1ccccc1)c1ccccc1` (centres undefined), the melting point came to 110 °C.
On to `Cc1cc2c(cc1C)SC(CCCN1CCN(c3ccc(F)cc3)CC1)C(=O)N2` (centres undefined), for which the melting point is 161 to 162 °C.
Compound `CCOC(=O)[C@@H](O)[C@@H](NC(=O)c1ccccc1)c1ccccc1` came in with a melting point of 160 to 161 °C.
As to `O=C(O)C(F)Oc1ccccc1` (centres undefined), the melting point is 61 to 63 °C.
On to `ON=C(c1ccc(F)cc1)c1cccc2nc(N[C@@H]3CCc4ccccc43)ccc12`, for which the melting point was determined as 184 °C.
For the compound `CC1Cc2cc3c(cc2C(c2ccc([N+](=O)[O-])cc2)=NN1C1=NC(=O)CCS1)OCO3` (centres undefined), the melting point lay within 220 to 221 °C.
In turn, `CCOC(=O)CCCn1c(C(=O)O)cc2cc(C)ccc21` came in with a melting point of 142 °C.
Next, `COc1ccc(CN2CCC(c3cn(Cc4ccco4)c4ccccc34)CC2)cc1C(=O)O`: 237 to 238 °C; `Cc1cccc(NC(=O)NC2N=C(C3CC3)c3cccc(C)c3N(CC(=O)C3CCCCC3)C2=O)c1` (centres undefined): 144 °C.
With `CNCc1cccc(-c2ccc(CC3SC(=O)NC3=O)c(C)c2)c1` (centres undefined), the melting point is 135 °C.
As for `CS(=O)(=O)c1ccc(N2C=CC(N3CCCC3)C(=O)N2c2ccc(F)cc2)cc1` (centres undefined), the melting point is 192 to 195 °C.
In turn, `O=Cc1c(-c2ccccc2)nn2ccccc12` yielded a melting point of 221 to 222 °C.
`CC(C)CCCC(C)C1CCC2C3CC=C4CC(OCCO)CCC4(C)C3CCC12C` (centres undefined) registered a melting point of 92 to 95 °C.
Then `CCS(=O)c1ccc(-c2nc3n(c2-c2ccncc2)CCC3)cc1` (centres undefined), with 108 to 110 °C; and `CN(C)C1CCCC(C(=O)N2CCC(c3[nH]nc4c3C(=O)c3c(NC(=O)NN5CCOCC5)cccc3-4)CC2)C1` (centres undefined), with 153 to 155 °C.
In turn, `CC(c1ccncc1F)C(O)(Cn1cncn1)c1ccc(F)cc1F` (centres undefined) yielded a melting point of 188 to 189 °C.
`O=c1nc(NCCCOc2cccc(CN3CCCCC3)c2)c2ccccc2[nH]1` came in with a melting point of 219 to 221 °C.
Take `Cc1cn(CC(O)(CC(C)(C)c2cccc3c2OCC3)C(F)(F)F)c(CO)c(C)c1=O` (centres undefined): the melting point fell in the range of 160 to 162 °C.
In the case of `O=C(OCc1ccccc1)c1ccc(CCCOCCCCCCNCC(O)c2ccc(O)c(CO)c2)cc1` (centres undefined), the melting point was in the range of 51 to 52 °C.
`CN(C)CCc1c(CC(N)=O)c2ccccc2n1C`: the melting point lay within 131 to 134 °C.
The compound `C[C@@H](n1cnc2ccccc2c1=O)[C@](O)(Cn1cncn1)c1ccc(F)cc1F` registered a melting point of 122 to 128 °C.
In turn, `CN(C)CCCCC1CCCCN1C(=O)N1c2ccccc2C(=O)Nc2cccnc21` (centres undefined) yielded a melting point of 145 to 147 °C.
Then `C[C@H](c1ccccc1)N1CC(=NO)C2(CCC2)C1=O`, with 203 to 208 °C.
In turn, `NC(=O)CCCSCc1nccc(NC(N)=NCC(F)(F)F)n1` had a melting point of 126 to 128 °C.
Next, `CC(=O)On1cc(-c2ccccc2)c(=O)c(-c2ccccc2)c1`: 197 to 199 °C; `COC(=O)NCc1cc(OC)cc(Cl)c1Cl`: 90 to 91 °C.
In turn, `CSc1nnc(Sc2ncnc3c(C)csc23)s1` had a melting point of 163 to 166 °C.
